From patent US20220119794A1, “CHEMICALLY PROGRAMMED NEUTROPHILS AND USES THEREOF” (VIRGINIA POLYTECHNIC INSTITUTE AND STATE UNIVERSITY, priority 2018, published 2022)

Assays:
[1] = system: p-STAT1, ATF4, KLF2 in BM neutrophils; test: p-STAT1, ATF4 and KLF2 levels in neutrophils by flow cytometry; assay type: cell-based, C57 BL/6 mice; conditions: LPS 100 pg/ml, vs PBS
Experimental: (§1) In vitro neutrophil priming and FACS analysis. Bone marrow (BM) neutrophils were isolated from C57 BL/6 mice and cultured in complete RPMI medium containing 10% fetal bovine serum, 2 mM L-glutamine, 1% penicillin/streptomycin in the presence of G-CSF (100 ng/ml). PBS, subclinical dose LPS (100 pg/ml), oxLDL (10 μg/ml) or 4-PBA (1 mM) was added to cell cultures. After 2 days, the cells were harvested and stained with anti-Ly6G (BioLegend, #127606, 127610 or 127618, 1:200 dilution), anti-CD11b (BioLegend, #101206, 1:200 dilution), anti-CD62L (BioLegend, #104407, 1:200 dilution), anti-Dectin1 (BioLegend, #144305, 1:200 dilution), anti-LLRC32 (BioLegend, #142904, 1:200 dilution) and anti-FPN (Novus, #NBP1-21502, 1:200 dilution) antibodies. In some experiments, the cells were fixed and permeabilized using transcription factor phospho buffer set (BD Biosciences), and then stained with primary anti-p-STAT1 (Cell Signaling, #8009S, 1:50 dilution), anti-ATF4 (Proteintech, #10835-1-AP, 1:50 dilution), and anti-KLF2 (Novus, #NBP2-61812, 1:100 dilution) antibodies followed by staining with Alexa Fluor 488 conjugated goat anti-rabbit IgG (Abcam, #ab150077, 1:2000 dilution). Surface phenotype and transcription factor phosphorylation of Ly6G+ neutrophils were analyzed by FACSCanto II (BD Biosciences). For intracellular ROS detection, 5 μM CellROX Green Reagent (ThermoFisher) was added to neutrophil cultures 30 min before harvesting, and cells were analyzed by FACSCanto II (BD Biosciences). The data were processed by Flow Jo (Tree Star).

BM neutrophils [2] = test: ELISA of MMP9, LTB4, MPO in neutrophil culture supernatant; assay type: cell-based, C57 BL/6 mice; conditions: LPS 100 pg/ml with G-CSF, vs G-CSF alone
Experimental: (§2) ELISA and determination of plasma lipids. For in vivo analyses, plasma was collected from the mice at time of sacrificing. For in vitro analyses, purified BM neutrophils were cultured in complete RPMI medium with G-CSF (100 ng/ml) in the presence of PBS, subclinical dose LPS (100 pg/ml), oxLDL (10 μg/ml) or 4-PBA (1 mM), and supernatant was collected after 2 d. ELISA kit of MPO was purchased from ThermoFisher, and ELISA kits of MMP9, LTB4 and TGF-β1 were purchased from R&D Systems. Cholesterol quantitation kit was purchased from Sigma-Aldrich, and triglyceride quantification kit was purchased from BioVision.

BM neutrophils [3] = test: Lysosome-peroxisome fusion by confocal microscopy; assay type: cell-based, C57 BL/6 mice; conditions: LPS 100 pg/ml, 2 d, vs PBS
Experimental: Confocal Microscopy. Purified BM neutrophils were cultured in complete RPMI medium with G-CSF (100 ng/ml) in the presence of PBS, subclinical dose LPS (100 pg/ml), or 4-PBA (1 mM) for 2 d. To determine lysosome-peroxisome fusion, the cells were fixed with 4% PFA, deposited on slides through cytospin, and permeabilized with 0.2% Trinton X-100. The cells were blocked and stained with primary rabbit anti-mouse PMP70 antibody (1:1000) supplied in SelectFX® Alexa Fluor® 488 Peroxisome Labeling Kit (ThermoFisher, #S34201), followed by staining with Alexa Fluor 488-goat anti-rabbit secondary antibody (1:1000) supplied in the kit. After extensive washing with PBS, the cells were then stained with Cy3-anti-LAMP1 antibody (Abcam, #Ab67283, 1:1000) and observed under a confocal microscope.

BM neutrophils [4] = test: Real-time RT-PCR of miR-24 and miR-126 in neutrophil cultures; assay type: cell-based, C57 BL/6 mice; conditions: LPS 100 pg/ml, 2 d, vs PBS
Experimental: Real-Time RT-PCR for detecting of miRNAs. For in vivo analyses, plasma was collected from the mice at time of sacrificing. Circulating miRNAs were isolated with miRNeasy Serum/Plasma kit (Qiagen). For in vitro analyses, purified BM neutrophils were cultured in complete RPMI medium with G-CSF (100 ng/ml) in the presence of PBS, subclinical dose LPS (100 pg/ml), or 4-PBA (1 mM), and miRNAs were isolated with miRNeasy mini kit (Qiagen) after 2 d. TaqMan miRNA Assay kits for detection of U6, miR-16, miR-24, and miR-126 were purchased from ThermoFisher. Real-time RT-PCR was performed following the manual. U6 expression was used as the internal control for miRNA expressions in neutrophil cultures, and miR-16 expression was used as the internal control for plasma miRNA expressions.

Ly6G+ neutrophils = test: Analyses of neutrophil phenotype in vivo by flow cytometry; design: species or system mice
Experimental: (§3) Experimental animals and LPS injection. Male ApoE−/− mice (6 to 8-week old) on the C57 BL/6 background were purchased from the Jackson Laboratory and fed with regular diet or High Fat Diet. Either PBS or subclinical dose LPS (5 ng per kg body weight) was intraperitoneally injected every 3 days for 1 month. Then, the mice were sacrificed and tissues were harvested for further analyses. All animal procedures were in accordance with the US National Institutes of Health Guide for the Care and Use of Laboratory Animals and approved by the Intuitional Animal Care and Use Committee of Virginia Tech.
Analyses of neutrophil phenotype in vivo. Peripheral blood cells, bone marrow (BM) cells and splenocytes were harvested from the mice treated as described above. Cells were stained with anti-Ly6G (BioLegend, #127618, 1:200 dilution), anti-CD11b (BioLegend, #101206, 1:200 dilution), anti-CD62L (BioLegend, #104407, 1:200 dilution), anti-Dectin1 (BioLegend, #144305, 1:200 dilution), anti-LLRC32 (BioLegend, #142904, 1:200 dilution) and anti-FPN (Novus, #NBP1-21502, 1:200 dilution) antibodies. The surface phenotype of Ly6G+ neutrophils was analyzed by FACSCanto II (BD Biosciences). The data were processed by Flow Jo (Tree Star).

ApoE−/− mice = test: Subclinical low dose LPS injection in ApoE−/− mice: atherosclerotic lesions, circulating mediators; assay type: in vivo; conditions: for lesional oxCAMKII levels: low dose LPS vs PBS
Experimental: as §3
Analyses of atherosclerotic lesions. Histological analyses were performed on fresh-frozen and optimal cutting temperature (OCT) compound-embedded proximal aortic sections ([…]). Slides were fixed in 4% neutral buffered formalin for 5 min, followed by H&E or Oil Red O staining. Collagen staining was performed using the Picrosirius Red Stain Kit (Poly-Sciences) according to the manufacturer's instructions. The samples were observed under a light microscope. The percentages of total lesion area, lipid deposition, and collagen composition were calculated. For immunofluorescence staining, proximal aortic sections were fixed with 4% neutral buffered formalin for 5 min, permeabilized with 0.1% saponins, and blocked with 10% normal goat serum (Jackson ImmunoResearch) for 1 hour. To detect lesional neutrophils, the samples were stained with Alexa Fluor 647-conjugated anti-Ly6G antibody (1:50 dilution; BioLegend, no. 127610). To detect lesional macrophages, the samples were costained with eFluor 660-conjugated anti-CD68 (1:100 dilution; Thermo Fisher Scientific, no. 50-0681-82) and rabbit anti-SR-A (1:100 dilution; Thermo Fisher Scientific, no. PA5-22956) antibodies, followed by staining with DyLight 488-conjugated goat anti-rabbit immunoglobulin G (IgG) (1:100 dilution; Thermo Fisher Scientific, no. 35552) in the dark at room tem-perature for 1 hour. To detect oxCAMKII levels, the samples were stained with rabbit anti-oxCaMKII antibody (1:100 dilution; Millipore, no. 07-1387) at 4° C. overnight and then with DyLight 488-conjugated goat anti-rabbit IgG (1:100 dilution; Thermo Fisher Scientific, no. 35552) in the dark at room temperature for 1 hour. 4′,6-Diamidino-2-phenylindole was used to stain nucleus. The samples were observed under a confocal microscope.
as §2

BM neutrophils [5] = test: Intracellular ROS detection with CellROX; assay type: cell-based, C57 BL/6 mice; conditions: LPS 100 pg/ml, vs PBS
Experimental: as §1, with “In some experiments, the cells were fixed and permeabilized using transcription factor phospho buffer set (BD Biosciences), and then stained with primary anti-p-STAT1 (Cell Signaling, #8009S, 1:50 dilution), anti-ATF4 (Proteintech, #10835-1-AP, 1:50 dilution), and anti-KLF2 (Novus, #NBP2-61812, 1:100 dilution) antibodies followed by staining with Alexa Fluor 488 conjugated goat anti-rabbit IgG (Abcam, #ab150077, 1:2000 dilution).” left out, “The data were processed by Flow Jo (Tree Star).” left out

[6] = system: oxCaMKII and 5-LOX in BM neutrophils; test: Immunoblotting of oxCaMKII and 5-LOX in neutrophils; assay type: cell-based, C57 BL/6 mice; conditions: LPS 100 pg/ml, vs PBS
Experimental: Immunoblotting. Purified BM neutrophils were cultured in complete RPMI medium with G-CSF (100 ng/ml) in the presence of PBS, subclinical dose LPS (100 pg/ml), oxLDL (10 μg/ml) or 4-PBA (1 mM), and total cell lysate was extracted on day 2. Protein samples were separated with SDS-PAGE and transferred to PVDF membranes, which were probed with anti-oxCaMKII (Millipore, #07-1387, 1:500 dilution), anti-5 LOX (Cell Signaling, #3289S, 1:500 dilution), and anti-β-actin (Santa Cruz, #sc-47778, 1:1000 dilution) primary antibodies followed by horseradish peroxidase-conjugated anti-rabbit IgG (Cell Signaling, #7074S, 1:1000 dilution) or anti-mouse IgG (Cell Signaling, #7076S, 1:1000 dilution) secondary antibodies. Images were developed by a chemiluminescence ECL detection kit (ThermoFisher).

[7] = system: Bone marrow (BM) neutrophils; test: In vitro neutrophil priming, surface phenotype by FACS; assay type: cell-based, C57 BL/6 mice; conditions: LPS 100 pg/ml with G-CSF, vs G-CSF alone
Experimental: as §1

mice = mice repeatedly injected with 1.5 mg/kg LPS; cited from earlier work
BM neutrophils [8] = test: Surface phenotype of neutrophils before transfer, polarization for 24 h; assay type: cell-based, mice; conditions: polarized for 24 hours, vs PBS
Experimental: Bone marrow neutrophils were purified and treated with PBS, super-low-dose LPS (100 pg/ml) or 4-PBA (1 mM) for 24 h (FIGS. 16A-16B) and 48 h (FIGS. 16C-16D). The cells were stained with Annexin-V and PI, and the viability (percentage of Annexin-V-/PI-population) was determined by flow cytometry. (FIG. 16E) Surface phenotype of neutrophils was analyzed by flow cytometry after polarization for 24 h. Data are representative of three independent experiments, and error bars represent means±S.E.M. *P<0.05, **P<0.01 and ***P<0.001 as compared with PBS group; one-way ANOVA. (n=5 for each group).
Adoptive transfer of in vitro neutrophils. Bone marrow (BM) cells were isolated from ApoE−/− mice and BM neutrophils (Ly6G+ population) were purified by FACS sorting with >99.5% purity. The cells were cultured in complete RPMI with G-CSF (100 ng/ml) in the presence of subclinical dose LPS (100 pg/ml) or 4-PBA (1 mM) for 24 h. Cells were washed three times with PBS and suspended in PBS for injection. HFD-fed ApoE−/− mice were transfused with 2×10^6 neutrophils in 200 μl PBS once weekly through intravenous injection for 4 weeks. One week after the last cell transfer, mice were sacrificed and tissues were harvested for subsequent analyses.

[9] = LPS-injected vs PBS-injected mice
[10] = LPS-injected vs PBS-injected mice, blood, spleen, bone marrow
[11] = HFD-fed ApoE−/− mice, LPS 5 ng/kg body weight for 4 weeks, vs PBS

Substance: lipopolysaccharide [LPS]
- cellular level of ATF4 [1]: significantly reduced
- cellular level of KLF2 [1]: significantly reduced
- p-STAT1 level [1]: significantly elevated levels
- LTB4 in supernatant (BM neutrophils [2]): Significantly higher levels
- MMP9 in supernatant (BM neutrophils [2]): Significantly higher levels
- MPO in supernatant (BM neutrophils [2]): Significantly higher levels
- fusion between peroxisome and lysosome (BM neutrophils [3]): disruption of proper fusion
- miR-24 expression (BM neutrophils [4]): induced
- miR-126 expression (BM neutrophils [4]): potently suppressed
- neutrophil surface level of FPN (Ly6G+ neutrophils; [9]): significantly reduced
- neutrophil surface level of LRRC32 (Ly6G+ neutrophils; [9]): significantly reduced
- neutrophil surface CD11b (Ly6G+ neutrophils; [10]): significantly elevated
- neutrophil surface Dectin1 (Ly6G+ neutrophils; [10]): significantly elevated
- neutrophil surface-attached CD62L (Ly6G+ neutrophils; [10]): significant reduction
- percentages of neutrophils in blood, spleens and atherosclerotic plaques (Ly6G+ neutrophils; mice chronically injected with LPS vs PBS): higher percentages
- atherosclerotic plaque size (ApoE−/− mice; [11]): significantly larger
- circulating MPO (ApoE−/− mice; [11]): remarkable elevation
- circulating levels of TGFβ (ApoE−/− mice; [11]): significantly reduced
- collagen content within the plaque (ApoE−/− mice; [11]): significantly reduced
- plasma LTB4 level (ApoE−/− mice; [11]): significant elevation
- plasma MMP9 level (ApoE−/− mice; [11]): significant elevation
- lesional oxCAMKII levels (ApoE−/− mice; HFD-fed ApoE−/− mice): significantly elevated
- lesional oxCAMKII levels (ApoE−/− mice; RD-fed ApoE−/− mice): significantly elevated
- intracellular ROS level (BM neutrophils [5]): significantly higher levels
- 5-LOX level [6]: increased levels
- oxCAMKII level [6]: increased levels
- surface CD11b [7]: Significantly elevated levels
- surface CD62L [7]: significantly reduced levels
- surface Dectin-1 [7]: Significantly elevated levels
- surface FPN [7]: significantly reduced levels
- surface LRRC32 [7]: significantly reduced levels
- necrotic cores (mice): enlarged
- numbers of circulating neutrophils (mice): elevated numbers
- plaque collagen content (mice): reduced
- CD11b expression (BM neutrophils [8]): elevated expressions
- CD62L expression (BM neutrophils [8]): reduced expressions
- Dectin-1 expression (BM neutrophils [8]): elevated expressions
- FPN expression (BM neutrophils [8]): reduced expressions
- LRRC32 expression (BM neutrophils [8]): reduced expressions
